Results reported in US20210198256A1, “COMPOUNDS FOR THE DEGRADATION OF BRD9 OR MTH1” (C4 Therapeutics, Inc., priority 2018, published 2021).

Test system: SMARTCAR-MTH1-wt-HiBiT (Jurkat.7 cells)
Assay: HiBit Lytic Assay (HiBit DC50, MTH1 degraders of Table 2)
Type: cell-based, human
Conditions: Jurkat.7 SMARTCAR-MTH1-wt-HiBiT cells, compound treatment time 4 hr, 11-point half log dose response
Procedure, shortened: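 Jurkat.7 cells expressing SMARTCAR-MTH1-wt-HiBiT were treated at 37° C with 11-point half-log dilutions (top final 1000 nM or 833 nM, duplicates, 0.1% DMSO). Remaining HiBiT-tagged protein was read by Nano-Glo HiBiT lytic luminescence, normalized to media-only and DMSO controls.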

DC50, < 100 nM:
O=C1CCC(N2C(=O)c3cccc(NCC(O)C(=O)NCCCNC(=O)c4ccc(-c5cc6c(Nc7ccccc7)c(C(=O)NC7CC7)cnc6cc5F)cc4F)c3C2=O)C(=O)N1 (stereo not drawn) [Compound 440, N-cyclopropyl-6-(4-((3-(3-((2-(2,6-dioxopiperidin-3-yl)-1,3-dioxoisoindolin-4-yl)amino)-2-hydroxypropanamido)propyl)carbamoyl)-3-fluorophenyl)-7-fluoro-4-(phenylamino)quinoline-3-carboxamide]
CNC(=O)c1cnc2ccc(NCCCCCCCCCCNC(=O)CNc3cccc4c3CN(C3CCC(=O)NC3=O)C4=O)cc2c1Nc1ccccc1 (stereo not drawn) [Compound 441, 6-((10-(2-((2-(2,6-dioxopiperidin-3-yl)-1-oxoisoindolin-4-yl)amino)acetamido)decyl)amino)-N-methyl-4-(phenylamino)quinoline-3-carboxamide]
CNC(=O)c1cnc2ccc(NCCCCCCCCCCNC(=O)C(C)Oc3cccc4c3C(=O)N(C3CCC(=O)NC3=O)C4=O)cc2c1Nc1ccccc1 (stereo not drawn) [Compound 442, 6-((10-(2-((2-(2,6-dioxopiperidin-3-yl)-1,3-dioxoisoindolin-4-yl)oxy)propanamido)decyl)amino)-N-methyl-4-(phenylamino)quinoline-3-carboxamide]
CNC(=O)c1cnc2ccc(NCCCCCCCCCCNC(=O)[C@@H](C)Nc3cccc4c3C(=O)N(C3CCC(=O)NC3=O)C4=O)cc2c1Nc1ccccc1 (stereo partly drawn) [Compound 443, 6-((10-((2R)-2-((2-(2,6-dioxopiperidin-3-yl)-1,3-dioxoisoindolin-4-yl)amino)propanamido)decyl)amino)-N-methyl-4-(phenylamino)quinoline-3-carboxamide]
CNC(=O)c1cnc2ccc(NCCCCCCCCCCNC(=O)C(C)Nc3cccc4c3C(=O)N(C3CCC(=O)NC3=O)C4=O)cc2c1Nc1ccccc1 (stereo not drawn) [Compound 444, 6-((10-(2-((2-(2,6-dioxopiperidin-3-yl)-1,3-dioxoisoindolin-4-yl)amino)propanamido)decyl)amino)-N-methyl-4-(phenylamino)quinoline-3-carboxamide]
CNC(=O)c1cnc2ccc(NCCCCCCCCCCNC(=O)[C@H](C)Nc3cccc4c3C(=O)N(C3CCC(=O)NC3=O)C4=O)cc2c1Nc1ccccc1 (stereo partly drawn) [Compound 445, 6-((10-((2S)-2((2-(2,6-dioxopiperidin-3-yl)-1,3-dioxoisoindolin-4-yl)amino)propanamido)decyl)amino)-N-methyl-4-(phenylamino)quinoline-3-carboxamide]
CNC(=O)c1cnc2ccc(C(=O)NCCCCCCCCCNC(=O)COc3cccc4c3C(=O)N(C3CCC(=O)NC3=O)C4=O)cc2c1Nc1ccccc1 (stereo not drawn) [Compound 446, N6-(9-(2-((2-(2,6-dioxopiperidin-3-yl)-1,3-dioxoisoindolin-4-yl)oxy)acetamido)nonyl)-N3-methyl-4-(phenylamino)quinoline-3,6-dicarboxamide]
CNC(=O)c1cnc2ccc(NCCCCCCCCCCNC(=O)CN(C)c3cccc4c3C(=O)N(C3CCC(=O)NC3=O)C4=O)cc2c1Nc1ccccc1 (stereo not drawn) [Compound 447, 6-((10-(2-((2-(2,6-dioxopiperidin-3-yl)-1,3-dioxoisoindolin-4-yl)(methyl)amino)acetamido)decyl)amino)-N-methyl-4-(phenylamino)quinoline-3-carboxamide]
CNC(=O)c1cnc2ccc(NCCCCCCCCCCNC(=O)COc3cccc4c3C(=O)N(C3CCC(=O)NC3=O)C4=O)cc2c1NCc1ccccc1 (stereo not drawn) [Compound 448, 4-(benzylamino)-6-((10-(2-((2-(2,6-dioxopiperidin-3-yl)-1,3-dioxoisoindolin-4-yl)oxy)acetamido)decyl)amino)-N-methylquinoline-3-carboxamide]
CNC(=O)c1cnc2ccc(NCCCCCCCCCCNC(=O)COc3cccc4c3C(=O)N(C3CCC(=O)NC3=O)C4=O)cc2c1Nc1ccccc1 (stereo not drawn) [Compound 449, 6-((10-(2-((2-(2,6-dioxopiperidin-3-yl)-1,3-dioxoisoindolin-4-yl)oxy)acetamido)decyl)amino)-N-methyl-4-(phenylamino)quinoline-3-carboxamide]
CNC(=O)c1cnc2ccc(C(=O)NCCCCCCCCCCNC(=O)COc3cccc4c3C(=O)N(C3CCC(=O)NC3=O)C4=O)cc2c1Nc1ccccc1 (stereo not drawn) [Compound 450, N6-(10-(2-((2-(2,6-dioxopiperidin-3-yl)-1,3-dioxoisoindolin-4-yl)oxy)acetamido)decyl)-N3-methyl-4-(phenylamino)quinoline-3,6-dicarboxamide]
CNC(=O)c1cnc2ccc(NCCCCCCCCCCNC(=O)CNc3cccc4c3C(=O)N(C3CCC(=O)NC3=O)C4=O)cc2c1Nc1ccccc1 (stereo not drawn) [Compound 451, 6-((10-(2-((2-(2,6-dioxopiperidin-3-yl)-1,3-dioxoisoindolin-4-yl)amino)acetamido)decyl)amino)-N-methyl-4-(phenylamino)quinoline-3-carboxamide]
CCNC(=O)c1cnc2ccc(NCCCCCCCCCCNC(=O)COc3cccc4c3C(=O)N(C3CCC(=O)NC3=O)C4=O)cc2c1Nc1ccccc1 (stereo not drawn) [Compound 452, 6-((10-(2-((2-(2,6-dioxopiperidin-3-yl)-1,3-dioxoisoindolin-4-yl)oxy)acetamido)decyl)amino)-N-ethyl-4-(phenylamino)quinoline-3-carboxamide]
CNC(=O)c1cnc2ccc(C(=O)NCCCCCCCCNC(=O)COc3cccc4c3C(=O)N(C3CCC(=O)NC3=O)C4=O)cc2c1Nc1ccccc1 (stereo not drawn) [Compound 453, N6-(8-(2-((2-(2,6-dioxopiperidin-3-yl)-1,3-dioxoisoindolin-4-yl)oxy)acetamido)octyl)-N3-methyl-4-(phenylamino)quinoline-3,6-dicarboxamide]
CNC(=O)c1cnc2cc(OC)c(NCCCCCCCCCCNC(=O)COc3cccc4c3C(=O)N(C3CCC(=O)NC3=O)C4=O)cc2c1Nc1ccccc1 (stereo not drawn) [Compound 454, 6-((10-(2-((2-(2,6-dioxopiperidin-3-yl)-1,3-dioxoisoindolin-4-yl)oxy)acetamido)decyl)amino)-7-methoxy-N-methyl-4-(phenylamino)quinoline-3-carboxamide]
CNC(=O)c1cnc2ccc(C(=O)NCCCCCCCCCCCCNC(=O)COc3cccc4c3C(=O)N(C3CCC(=O)NC3=O)C4=O)cc2c1Nc1ccccc1 (stereo not drawn) [Compound 455, N6-(12-(2-((2-(2,6-dioxopiperidin-3-yl)-1,3-dioxoisoindolin-4-yl)oxy)acetamido)dodecyl)-N3-methyl-4-(phenylamino)quinoline-3,6-dicarboxamide]
CNC(=O)c1cnc2ccc(CNC(=O)CCCCCCCCNC(=O)COc3cccc4c3C(=O)N(C3CCC(=O)NC3=O)C4=O)cc2c1Nc1ccccc1 (stereo not drawn) [Compound 456, 6-((9-(2-((2-(2,6-dioxopiperidin-3-yl)-1,3-dioxoisoindolin-4-yl)oxy)acetamido)nonanamido)methyl)-N-methyl-4-(phenylamino)quinoline-3-carboxamide]
CC(C)NC(=O)c1cnc2ccc(NCCCCCCCCCCNC(=O)COc3cccc4c3C(=O)N(C3CCC(=O)NC3=O)C4=O)cc2c1Nc1ccccc1 (stereo not drawn) [Compound 457, 6-((10-(2-((2-(2,6-dioxopiperidin-3-yl)-1,3-dioxoisoindolin-4-yl)oxy)acetamido)decyl)amino)-N-isopropyl-4-(phenylamino)quinoline-3-carboxamide]
CNC(=O)c1cnc2ccc(C(=O)NCCCCCCNC(=O)COc3cccc4c3C(=O)N(C3CCC(=O)NC3=O)C4=O)cc2c1Nc1ccccc1 (stereo not drawn) [Compound 458, N6-(6-(2-((2-(2,6-dioxopiperidin-3-yl)-1,3-dioxoisoindolin-4-yl)oxy)acetamido)hexyl)-N3-methyl-4-(phenylamino)quinoline-3,6-dicarboxamide]
CNC(=O)c1cnc2ccc(CC(=O)NCCCCCCCCNC(=O)COc3cccc4c3C(=O)N(C3CCC(=O)NC3=O)C4=O)cc2c1Nc1ccccc1 (stereo not drawn) [Compound 459, 6-(2-((8-(2-((2-(2,6-dioxopiperidin-3-yl)-1,3-dioxoisoindolin-4-yl)oxy)acetamido)octyl)amino)-2-oxoethyl)-N-methyl-4-(phenylamino)quinoline-3-carboxamide]
NC(=O)c1cnc2ccc(NCCCCCCCCCCNC(=O)CNc3cccc4c3C(=O)N(C3CCC(=O)NC3=O)C4=O)cc2c1Nc1ccccc1 (stereo not drawn) [Compound 464, 6-((10-(2-((2-(2,6-dioxopiperidin-3-yl)-1,3-dioxoisoindolin-4-yl)amino)acetamido)decyl)amino)-4-(phenylamino)quinoline-3-carboxamide]
NC(=O)c1cnc2ccc(NCCCCCCCCCCNC(=O)COc3cccc4c3C(=O)N(C3CCC(=O)NC3=O)C4=O)cc2c1Nc1ccccc1 (stereo not drawn) [Compound 465, 6-((10-(2-((2-(2,6-dioxopiperidin-3-yl)-1,3-dioxoisoindolin-4-yl)oxy)acetamido)decyl)amino)-4-(phenylamino)quinoline-3-carboxamide]
NC(=O)c1cnc2ccc(NCCCCCCCCNC(=O)COc3cccc4c3C(=O)N(C3CCC(=O)NC3=O)C4=O)cc2c1Nc1ccccc1 (stereo not drawn) [Compound 466, 6-((8-(2-((2-(2,6-dioxopiperidin-3-yl)-1,3-dioxoisoindolin-4-yl)oxy)acetamido)octyl)amino)-4-(phenylamino)quinoline-3-carboxamide]
NC(=O)c1cnc2ccc(NC(=O)CCCCCCCCCNC(=O)COc3cccc4c3C(=O)N(C3CCC(=O)NC3=O)C4=O)cc2c1Nc1ccccc1 (stereo not drawn) [Compound 467, 6-(10-(2-((2-(2,6-dioxopiperidin-3-yl)-1,3-dioxoisoindolin-4-yl)oxy)acetamido)decanamido)-4-(phenylamino)quinoline-3-carboxamide]
